We go through three molecules from PMC2726796 (Journal of the American Chemical Society, 2008).

For one series, the target named is T1, KtzS (Kutzneria sp. 744, UniProt A8CF73).
T1 sequence (A8CF73 1-174): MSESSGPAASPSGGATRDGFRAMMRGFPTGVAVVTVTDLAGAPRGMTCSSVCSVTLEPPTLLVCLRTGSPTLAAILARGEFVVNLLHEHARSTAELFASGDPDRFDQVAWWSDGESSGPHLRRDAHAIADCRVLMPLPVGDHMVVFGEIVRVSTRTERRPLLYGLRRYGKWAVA
The series can be described thus: flavin reductase activity of purified enzyme. The class given is biochemical.

Substrate in series [1]: N[C@@H](Cc1c[nH]c2ccccc12)C(=O)O
The series can be described thus: coupled halogenation assay with flavin reductase. To be noted: FAD, NADH, excess KtzS or SsuE, chloride, O2. Type of series: biochemical, Kutzneria sp. 744.

Substrate in series [2]: N[C@@H](Cc1c[nH]c2c(Cl)cccc12)C(=O)O
The series can be described thus: coupled halogenation assay with flavin reductase. Type of series: biochemical, Kutzneria sp. 744. The settings on record: FAD, NADH, excess KtzS or SsuE, chloride, O2.

With `Cc1cc2nc3c(=O)[nH]c(=O)nc-3n(C[C@H](O)[C@H](O)[C@H](O)COP(=O)(O)OP(=O)(O)OC[C@H]3O[C@@H](n4cnc5c(N)ncnc54)[C@H](O)[C@@H]3O)c2cc1C` [FAD], the “flavin reductase activity of purified enzyme” value at KtzS (NADH as reductant) was “shown to be an NADH-utilizing FAD reductase”.
`NC(=O)C1=CN([C@@H]2O[C@H](COP(=O)(O)OP(=O)(O)OC[C@H]3O[C@@H](n4cnc5c(N)ncnc54)[C@H](O)[C@@H]3O)[C@@H](O)[C@H]2O)C=CC1` [NADH]: the “flavin reductase activity of purified enzyme” value on KtzS (FAD as acceptor) was “shown to be an NADH-utilizing FAD reductase”.

B1: KtzR (Kutzneria sp. 744) (protein)
chain: MVIVGGGTAGWMTAAYLKTAFGDRLSITVVESSRIGTIGVGEATFSDIQHFFQFLNLREQDWMPACNATYKLGIRFENWRHVGHHFYQPFEQIRPVYGFPLTDWWLHDAPTDRFDTDCFVMPNLCEAGRSPRHLDGTLADEDFVEEGDELANRTMSEHQGKSQFPYAYHFEAALLAKFLTGYAVDRGVEHVVDDVLDVRLDQRGWIEHVVTAEHGEIHGDLFVDCTGFRGLLLNKALGVPFVSYQDTLPNDSAVALQVPLDMQRRGIVPNTTATAREAGWIWTIPLFGRVGTGYVYAKDYLSPEEAERTLREFVGPAAADVEANHIRMRIGRSQESWRNNCVAIGLSSGFVEPLESTGIFFIHHAIEQLVKHFPAADWNPKSRDMYNSAVAHVMDGIREFLVIHYRGAARADNQYWRDTKTRPLPDGLAERIECWQTQLPDTETIYPYYHGLPPYSYMCILMGGGAIRTPASAALALTDQGAAQKEFAAVRDRAAQLRDTLPSHYEYLARMRGLDV
B1: the values for the Km in series [1] and in series [2] were 808 µM and 114 µM, respectively.

In general, Km refers to the substrate concentration at which the rate is half of its maximum.
